Test results published in ChEMBL document CHEMBL1156977, “Synthesis of new beta-1-C-alkylated imino-L-iditols: A comparative study of their activity as beta-glucocerebrosidase inhibitors” (Bioorg Med Chem, 2010).
pIC50, pKi: −log10 of the molar value.

What was measured:
[1] = target: T1, Lysosomal acid glucosylceramidase (Homo sapiens, UniProt P04062); assay: Inhibition of human recombinant beta-glucocerebrosidase assessed as p-nitrophenolate accumulation preincubated for 10 mins before p-nitrophenyl-beta-d-glucopyranoside addition measured after 10 mins by […]
T1 sequence (P04062 whole entry): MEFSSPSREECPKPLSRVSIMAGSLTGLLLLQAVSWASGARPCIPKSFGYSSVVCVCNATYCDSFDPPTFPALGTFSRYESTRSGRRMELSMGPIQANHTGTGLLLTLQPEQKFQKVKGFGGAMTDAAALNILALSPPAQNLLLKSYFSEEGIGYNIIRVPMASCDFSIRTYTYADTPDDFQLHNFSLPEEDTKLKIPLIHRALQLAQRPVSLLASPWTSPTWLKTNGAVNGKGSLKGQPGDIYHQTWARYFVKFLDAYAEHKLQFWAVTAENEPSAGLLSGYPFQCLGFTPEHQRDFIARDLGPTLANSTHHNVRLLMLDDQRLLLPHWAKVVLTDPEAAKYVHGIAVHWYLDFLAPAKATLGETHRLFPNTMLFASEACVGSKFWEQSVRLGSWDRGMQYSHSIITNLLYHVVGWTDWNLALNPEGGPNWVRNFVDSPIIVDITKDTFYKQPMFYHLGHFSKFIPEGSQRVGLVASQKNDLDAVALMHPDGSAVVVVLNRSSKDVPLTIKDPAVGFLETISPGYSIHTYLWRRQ

[2] = target: T2, Lysosomal acid glucosylceramidase (Homo sapiens) (UniProt P04062); assay: Inhibition of misfolded beta-glucocerebrosidase in human gaucher cells assessed as increase in enzyme activity at 10 nM; type: cell-based
T2 sequence (whole entry): T1 sequence (P04062 whole entry)

[3] = target: T2, Lysosomal acid glucosylceramidase (Homo sapiens); assay: Inhibition of human recombinant beta-glucocerebrosidase assessed as p-nitrophenolate accumulation at 1000 uM preincubated for 10 mins before p-nitrophenyl-beta-d-glucopyranoside addition measured after 10 mins by […]

SMILES | pIC50 [1] | other results
CCCCC1N[C@@H](CO)[C@@H](O)[C@H](O)[C@H]1O (single isomer, unassigned) | 3.83 | 
CCCCCCCCC[C@H]1NC[C@@H](O)[C@H](O)[C@H]1O |  | fold change (FC) [2]: 2; pKi [1]: 8.66
OCC(O)C[C@H]1N[C@@H](CO)[C@@H](O)[C@H](O)[C@H]1O (stereo partly drawn) |  | inhibition [3]: < 50%
CCC[C@H]1NC[C@@H](O)[C@H](O)[C@H]1O | 6.25 | 
CCCCCC[C@H]1N[C@@H](CO)[C@@H](O)[C@H](O)[C@H]1O | 4.37 | 
CCCCCC[C@H]1NC[C@@H](O)[C@H](O)[C@H]1O | 7.72 | 
CCCC1N[C@@H](CO)[C@@H](O)[C@H](O)[C@H]1O (single isomer, unassigned) | 3.31 | 
